Results reported in patent US10159636B2, “Cosmetic composition containing acetylated oligoglucuronans” (Sederma, S.A.S., priority 2008, dated 2018).
Marks after values point to notes of the source that are not given here.

Assays:
[1] = molecular target: serum albumin incubated with fructose (Homo sapiens, UniProt P02768); test: Anti-glycation efficacy: inhibition of AGE (FFI compounds) production, fluorescence; format: biochemical; details: 0.03%; serum albumin 2% + 100 mM fructose, pH 7.4, 50° C., 1 week; N=2
Experimental: Principle: Non-enzymatic glycation between a protein and a reducing sugar is a slow spontaneous reaction which can be accelerated by temperature. An in vitro study model consisting of serum albumin incubated with fructose for one week was used. Glycation is recorded from the formation of fluorescent compounds, generally pentosides or FFI (furoyl-furanyl-imidazoles).
Protocol: In our test, serum albumin (2%) and 100 mM fructose are incubated in a pH 7.4 phosphate buffer at 50° C. for 1 week. […] The glycation reference value (Control) for the glycation after 1 week is determined from the serum albumin and fructose incubation. The positive glycation inhibition Control is obtained by incubating in the presence of aminoguanidine 0.03% and the test incubations are performed in the presence of 9.1% acetylated oligoglucuronans at different concentrations.
Results: For each fluorescence value measured the percentage change is calculated compared to the Control. The results shown in the table below are the mean values from N=2 tests.

[2] = tested on: hyaluronic acid synthesis by keratinocytes; test: Assay of hyaluronic acid synthesis by keratinocytes (sandwich ELISA); format: cell-based, human; details: for % Change/untreated cells (hyaluronic acid synthesis by keratinocytes): 72 h
Experimental: Human keratinocytes are inseminated. After anchoring for 24 h, retinoic acid and 9.1% acetylated oligoglucuronans are placed in contact with the cells for 72 h. The culture supernatants are removed and the amount of hyaluronic acid is quantified by sandwich ELISA.
Retinoic acid is used at the positive control for hyaluronic acid synthesis.
(§1) Analysis of variance is performed on the data (treated cases compared to untreated cases). If variances are equal, a Student t test for paired series is then performed on the mean values.
(§2) Human keratinocytes are inseminated into well plates. After anchoring for 24 h, retinoic acid, oligoglucuronans I, oligoglucuronans II, oligoglucuronans III, glucuronic acid and galacturonic acid are placed in contact with the cells for 72 h. The culture supernatants are removed and the amount of hyaluronic acid is quantified by sandwich ELISA.
Retinoic acid is used as a positive control of hyaluronic acid.

[3] = tested on: laminin synthesis by keratinocytes; test: Assay of laminin synthesis by keratinocytes (sandwich ELISA); format: cell-based, human; details: for Conclusion (laminin by keratinocytes) / % Change/untreated cells (laminin by keratinocytes): Table 9; for % Change/untreated cells (laminin by keratinocytes): n = 5
Experimental: Human keratinocytes are inseminated into 24 well plates. After anchoring for 24 h, TGF-β1 and 9.1% acetylated oligoglucuronans are placed in contact with the cells for 72 h. The culture supernatants are removed and the amount of laminin is quantified by sandwich ELISA.
TGF-β1 is used as a positive control for laminin synthesis.
as §1
as §2, with “TGF-β1,” for “retinoic acid,”, “laminin” for “hyaluronic acid”

[4] = tested on: elastin synthesis by fibroblasts; test: Assay of elastin synthesis by fibroblasts (sandwich ELISA of culture supernatants); format: cell-based, human
Experimental: Normal human fibroblasts are inseminated. After anchoring for 24 h, TGF-β1 and 9.1% acetylated oligoglucuronans are placed in contact with the cells for 72 h. The culture supematants are removed and the amount of elastin is quantified by sandwich ELISA.
TGF-β1 is used as the positive control for elastin synthesis.
as §1
Normal human fibroblasts are inseminated. After anchoring for 24 h, TGF-β1, oligoglucuronans I, oligoglucuronans II, oligoglucuronans IIII, glucuronic acid and galacturonic acid are placed in contact with the cells for 72 h. The culture supernatants are removed and the amount of elastin present is quantified by sandwich ELISA.
TGF-β1 is used as a positive control for elastin.

[5] = Table 8, Eq 0.04% oligoglucuronans I, n = 5
[6] = Table 8, Eq 0.06% oligoglucuronans I, n = 5
[7] = Eq 0.04% oligoglucuronans 1, 72 h
[8] = Eq 0.06% oligoglucuronans 1, 72 h
[9] = Table 7, Eq 0.04% oligoglucuronans I, 72 h, n = 5

serum albumin incubated with fructose, sequence (P02768 25-609): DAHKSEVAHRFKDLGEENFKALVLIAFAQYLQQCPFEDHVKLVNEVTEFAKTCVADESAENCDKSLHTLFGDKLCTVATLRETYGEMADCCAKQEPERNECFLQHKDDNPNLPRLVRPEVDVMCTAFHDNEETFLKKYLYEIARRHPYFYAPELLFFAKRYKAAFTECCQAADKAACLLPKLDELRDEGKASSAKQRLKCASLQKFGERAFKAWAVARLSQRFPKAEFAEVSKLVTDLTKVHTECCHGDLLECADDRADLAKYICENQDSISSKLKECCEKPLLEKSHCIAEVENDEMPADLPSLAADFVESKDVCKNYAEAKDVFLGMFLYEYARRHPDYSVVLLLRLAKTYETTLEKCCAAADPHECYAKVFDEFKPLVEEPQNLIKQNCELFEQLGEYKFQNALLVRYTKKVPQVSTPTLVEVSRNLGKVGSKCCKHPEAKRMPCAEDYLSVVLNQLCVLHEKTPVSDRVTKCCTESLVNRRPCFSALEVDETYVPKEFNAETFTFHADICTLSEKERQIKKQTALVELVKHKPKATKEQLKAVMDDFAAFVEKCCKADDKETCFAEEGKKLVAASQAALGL

Molecule: N=C(N)NN [Aminoguanidine, aminoguanidine]
- Reduction in AGE % compared to Control [1]: 67 +/− 2%

Molecule: CC1=C(/C=C/C(C)=C/C=C/C(C)=C/C(=O)O)C(C)(C)CCC1 [Retinoic acid]
- % Change/untreated cells (hyaluronic acid synthesis by keratinocytes) ([2]; Table 2, 1 μM, N = 3): +144%*
- % Change/untreated cells (hyaluronic acid synthesis by keratinocytes) ([2]; Table 8, 1 μM, n = 5): +136%*

Molecule: O=C[C@H](O)[C@@H](O)[C@@H](O)[C@H](O)C(=O)O [Galacturonic acid]
- Conclusion (hyaluronic acid synthesis by keratinocytes) ([2]; Table 8): =0
- % Change/untreated cells (hyaluronic acid synthesis by keratinocytes) [2, 5]: +7%
- % Change/untreated cells (hyaluronic acid synthesis by keratinocytes) [2, 6]: +12%
- Conclusion (laminin by keratinocytes) [3]: =0
- % Change/untreated cells (laminin by keratinocytes) [3, 7]: +1%
- % Change/untreated cells (laminin by keratinocytes) [3, 8]: −4%
- Conclusion (elastin synthesis by fibroblasts) ([4]; Table 7): =0
- % Change/untreated cells (elastin synthesis by fibroblasts) [4, 9]: −1%

Molecule: O=C[C@H](O)[C@@H](O)[C@H](O)[C@H](O)C(=O)O [Glucuronic acid]
- Conclusion (hyaluronic acid synthesis by keratinocytes) ([2]; Table 8): =0
- % Change/untreated cells (hyaluronic acid synthesis by keratinocytes) [2, 5]: +10%
- % Change/untreated cells (hyaluronic acid synthesis by keratinocytes) [2, 6]: +2%
- Conclusion (laminin by keratinocytes) [3]: =0
- % Change/untreated cells (laminin by keratinocytes) [3, 7]: −7%
- % Change/untreated cells (laminin by keratinocytes) [3, 8]: −12%
- Conclusion (elastin synthesis by fibroblasts) ([4]; Table 7): =0
- % Change/untreated cells (elastin synthesis by fibroblasts) [4, 9]: +32%

Molecule: TGF-β1: Positive control for elastin (fibroblast) and laminin (keratinocytes)
- % Change/untreated cells (laminin synthesis by keratinocytes) ([3]; Table 3, 10 ng/mL, 72 h, N = 3): +291%*
- Conclusion (laminin by keratinocytes) [3]: Positive
- % Change/untreated cells (laminin by keratinocytes) ([3]; 10 ng/mL, 72 h): +255%*
- % Change/untreated cells (elastin synthesis by fibroblasts) ([4]; Table 1, 10 ng/mL, 72 h contact, N = 2): +122%*
- Conclusion (elastin synthesis by fibroblasts) ([4]; Table 7): Positive
- % Change/untreated cells (elastin synthesis by fibroblasts) ([4]; Table 7, 10 ng/mL, 72 h, n = 5): +106%*
